System: colonic bacteria

conversion of the sulfonyl compound in human fecal material: converted to an unknown derivative
Structure (SMILES): CC1=C(CC(=O)O)c2cc(F)ccc2C1=Cc1ccc(S(C)(=O)=O)cc1 [Example 10, α-(1-ρ-Methylsulfonylbenzylidene)-2-Methyl-5-Fluoro-3-Indenyl-Acetic Acid]

From patent US20020107248A1, “Method for treating patients with neoplasia by administering substituted sulfonyl indenyl acetic and propionic acids and esters thereof” (priority 1991, published 2002)
